{"source": "patent US20090247553A1", "about": "“Highly Pure Paliperidone or a Pharmaceutically Acceptable Salt Thereof Substantially Free of Keto Impurity” (ACTAVIS GROUP PTC EHF, priority 2008, published 2009)", "origin": "cited, not measured here", "key": {"[1]": {"conditions": "powder"}}, "data": [{"molecule": "Cc1nc2n(c(=O)c1CCN1CCC(c3noc4cc(F)ccc34)CC1)CCCC2O", "note": "(racemic) [Paliperidone, (±)-3-[2-[4-(6-fluoro-1,2-benzisoxazol-3-yl)-1-piperidinyl]ethyl]-6,7,8,9-tetrahydro-9-hydroxy-2-methyl-4H-pyrido[1,2-a]pyrimidin-4-one]", "values": [{"measurement": "hygroscopicity", "setting": "[1]", "value": "non-hygroscopic"}, {"measurement": "solubility in 0.1N HCl", "setting": "0.1N HCl", "value": 2.3, "unit": "g/100 ml"}, {"measurement": "solubility in ethanol", "setting": "ethanol", "value": 0.076, "unit": "g/100 ml"}, {"measurement": "solubility in water", "setting": "water", "value": 0.003, "unit": "g/100 ml"}]}]}
